Values after ≈ are worked out from the molar mass of the structure shown.
Tests used:
Assay type in all cases: physicochemical
[1] = Preliminary solubility investigation of amorphous cethromycin in solvents; conditions: for Solubility: 50 °C, organic solvent or mixture, thermodynamic from solid, heated to 50° C.
Protocol: Amorphous cethromycin (25 mg) in HPLC vials was treated with increasing volumes of solvent until the material fully dissolved or until a maximum of 60 vol (1.5 ml) had been added. After each addition of solvent, the vials were stirred and gently heated to 50° C. before the addition of a new aliquot of solvent. […] All solids were then isolated by filtration and dried under suction. Antisolvent (n-heptane, 10 or 20 vol) was added to any solutions and the resulting gums were matured in a chamber switching from 25° C. to 50° C. every four hours. All isolated solids were analysed by PXRD.

[2] = Kinetic solubility (2 hours) in SGF media; conditions: simulated gastric fluid, thermodynamic from solid, 2 hours, 25° C.
Protocol: Sufficient sample was suspended in 0.25 ml media for a maximum anticipated concentration of ca. 40 mg/ml of the free form of the compound. The resulting suspensions were then shaken at 25° C./750 rpm for 2 hours. After equilibration, the appearance was noted, and the pH of the saturated solution was measured. Samples were then filtered through a glass ‘C’ fibre filter (particle retention 1.2 μm). All the samples were diluted 100 times with SGF media. […] Different volumes of the standard and diluted sample solutions were injected.

[3] = Thermodynamic solubility (24 hours) in DI water; conditions: DI water, 24 hours
Protocol: Sufficient sample was suspended in 0.25 ml media for a maximum anticipated concentration of ca. 40 mg/ml of the free form of the compound. The resulting suspensions were then shaken at 25° C./750 rpm for 24 hours. The pH of samples suspended in PBS pH 7.4 were checked and adjusted if necessary (>0.05 change in pH) after 2 hours. After equilibration, the appearance was noted and the pH of the saturated solution was measured. Samples were then filtered through a glass ‘C’ fibre filter (Particle retention 1.2 μm). Samples suspended in PBS pH 7.4 buffer was diluted 10 times with PBS buffer and samples suspended in DI water diluted 100 times with DI water.

With `CC[C@H]1OC(=O)[C@H](C)C(=O)[C@H](C)[C@@H](O[C@@H]2O[C@H](C)C[C@H](N(C)C)[C@H]2O)[C@](C)(OC/C=C/c2cnc3ccccc3c2)C[C@@H](C)C(=O)[C@H](C)[C@H]2NC(=O)O[C@@]21C` [Cethromycin, (3aS,4R,7R,9R,10R,11R,13R,15R,15aR)-10-(((2S,3R,4S,6R)-4-(dimethylamino)-3-hydroxy-6-methyltetrahydro-2H-pyran-2-yl)oxy)-4-ethyl-3a,7,9,11,13,15-hexamethyl-11-(((E)-3-(quinolin-3-yl)allyl)oxy)octahydro-2H-[1]oxa-cyclotetradecino[4,3-d]oxazole-2,6,8,14(1H,7H,9H)-tetraone] the Solubility ([1]; 2-propanol, 10 vol) was > 100 mg/mL, the Solubility in solvents ([1]; 10 vol of THF:H2O (9:1), 2-propanol, EtOH, EtOAc, acetone, MeCN, THF, TBME and DCM) was “readily soluble” and the Solubility ([1]; DCM, 10 vol) was > 100 mg/mL. The Solubility ([1]; EtOAc, 10 vol) was > 100 mg/mL, the Solubility ([1]; EtOH, 10 vol) was > 100 mg/mL and the Solubility ([1]; Hept (heptane), Hept, 10 vol) was < 100 mg/mL. For the same compound, the Solubility ([1]; Hept (heptane), Hept, 20 vol) was < 50 mg/mL, the Solubility ([1]; Hept (heptane), Hept, 30 vol) was < 33.3 mg/mL and the Solubility ([1]; Hept (heptane), Hept, 40 vol) was < 25 mg/mL. For the same compound, the Solubility ([1]; Hept (heptane), Hept, 50 vol) was < 20 mg/mL, the Solubility ([1]; Hept (heptane), Hept, 60 vol) was < 16.7 mg/mL and the Solubility ([1]; MeCN, 10 vol) was > 100 mg/mL. The Solubility ([1]; TBME, 10 vol) was > 100 mg/mL, the Solubility ([1]; THF, 10 vol) was > 100 mg/mL and the Solubility ([1]; THF:H2O (9:1), THF:H2O (9:1), 10 vol) was > 100 mg/mL. The Solubility ([1]; acetone, 10 vol) was > 100 mg/mL, the solubility kinetic at 2 h [2] was 25 mg/mL (≈ 32.6 mM) and the “pH of the saturated solution, thermodynamic solubility in DI water” value [3] was 7.0. It also gave a solubility thermodynamic at 24 h ([3]; thermodynamic from solid, 25° C.) of 0.4 mg/mL (≈ 0.522 mM).

Source: patent publication US11697667B2, “Salts and polymorphs of cethromycin for the treatment of disease” (AliquantumRx, Inc., priority 2019, dated 2023)
